In patent publication US8450374B2, “Pan-antagonists for the androgen receptor and androgen receptor mutants associated with anti-androgen withdrawal” (priority 2009, dated 2013):
Substitutions are numbered along the chain they refer to.

Key:
AR T877A = target: T1, AR T877A (Homo sapiens, UniProt P10275, T878A); assay: Transcription assay (ARE-luciferase reporter) in CV-1 cells, AR T877A; assay type: cell-based; set-up: expressed in transfected cells; host or cells: CV-1; details: for Antagonist efficacy (RLU value at IC50), AR T877A: in competition with 10 nM DHT
T1 sequence (P10275 1-920 T878A): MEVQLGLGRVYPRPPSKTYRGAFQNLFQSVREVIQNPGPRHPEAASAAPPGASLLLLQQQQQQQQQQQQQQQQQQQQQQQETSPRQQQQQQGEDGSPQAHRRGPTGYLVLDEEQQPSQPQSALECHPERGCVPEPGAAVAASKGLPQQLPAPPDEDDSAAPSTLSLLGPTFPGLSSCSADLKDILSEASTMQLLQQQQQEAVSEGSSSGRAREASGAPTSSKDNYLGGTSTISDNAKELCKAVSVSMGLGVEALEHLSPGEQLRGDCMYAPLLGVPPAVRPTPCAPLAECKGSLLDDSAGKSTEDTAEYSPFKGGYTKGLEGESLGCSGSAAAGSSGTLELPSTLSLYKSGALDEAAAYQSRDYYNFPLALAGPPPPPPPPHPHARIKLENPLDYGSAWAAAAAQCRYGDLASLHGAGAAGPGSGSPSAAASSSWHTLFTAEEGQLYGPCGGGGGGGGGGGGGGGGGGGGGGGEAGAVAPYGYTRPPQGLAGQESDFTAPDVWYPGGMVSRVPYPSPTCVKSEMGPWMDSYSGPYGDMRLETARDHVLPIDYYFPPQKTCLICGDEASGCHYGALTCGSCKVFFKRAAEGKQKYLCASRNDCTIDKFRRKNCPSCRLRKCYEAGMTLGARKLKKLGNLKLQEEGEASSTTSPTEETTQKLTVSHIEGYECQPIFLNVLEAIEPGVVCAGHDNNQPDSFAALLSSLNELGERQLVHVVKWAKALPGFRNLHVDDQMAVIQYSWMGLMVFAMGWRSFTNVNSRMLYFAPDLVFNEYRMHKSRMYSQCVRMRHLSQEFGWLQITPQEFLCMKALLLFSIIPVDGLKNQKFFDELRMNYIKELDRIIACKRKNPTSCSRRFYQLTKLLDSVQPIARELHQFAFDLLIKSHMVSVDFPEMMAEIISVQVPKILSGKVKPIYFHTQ
Experimental: (§1) Twenty-four hours prior to transfection, CV-1 cells were seeded at a density of 45,000 cells per well in 24-well cell culture plates and grown in phenol red free Dulbecco's Modified Eagle Medium (DMEM) supplemented with 10% cosmic calf serum (COS). ARE-luciferase reporter and Renilla-Luc as the internal standard and a prokaryotic expression vector encoding the wild-type androgen receptor or mutant androgen receptor were transfected with Lipofectamine (Invitrogen) following manufacturer's protocol. Five hours after transfection, media was added containing the appropriate concentrations of ligands. The cells were allowed to incubate for 38 hours before harvesting by passive lysis buffer. Cell extracts were immediately assayed using the Dual Luciferase Assay (Promega) with a Perkin-Elmer Microbeta Luminometer. […] Dose-response data was analyzed by nonlinear regression analysis using GraphPad Prism.

AR W741C = target: T2, AR W741C (Homo sapiens, UniProt P10275, W742C); assay: Transcription assay (ARE-luciferase reporter) in CV-1 cells, AR W741C; assay type: cell-based; set-up: expressed in transfected cells; host or cells: CV-1; details: for Antagonist efficacy (RLU value at IC50), AR W741C: in competition with 200 nM DHT
T2 sequence (P10275 1-920 W742C): T1 sequence (P10275 1-920 T878A) with W742C, A878T
Experimental: as §1

Row | SMILES | IC50 (AR T877A) [µM] | Antagonist efficacy (RLU value at IC50), AR T877A (AR T877A) | IC50 (AR W741C) [µM] | Antagonist efficacy (RLU value at IC50), AR W741C (AR W741C)
1 | CN(C)CCCOc1cccc(Cc2ccccc2S(=O)(=O)CC(C)(O)C(=O)Nc2ccc(C#N)c(C(F)(F)F)c2)c1 (stereo not shown) [PAN22] | 1.8 ± 0.3 | (53% ± 3.8%) | 5.6 ± 0.8 | (53% ± 2.1%)
2 | CC(O)(CS(=O)(=O)c1ccccc1-c1ccccc1O)C(=O)Nc1ccc(C#N)c(C(F)(F)F)c1 (stereo not shown) [PAN41, N-(4-cyano-3-(trifluoromethyl)phenyl)-2-hydroxy-3-(2′-hydroxybiphenyl-2-ylsulfonyl)-2-methylpropanamide] | 3.9 ± 1.9 | (53% ± 10%) | 8 ± 2.6 | (50% ± 1.0%)
3 | CN(C)CCCOc1cccc(-c2ccccc2S(=O)(=O)CC(C)(O)C(=O)Nc2ccc(C#N)c(C(F)(F)F)c2)c1 (stereo not shown) [PAN52] | 4 ± 2.2 | (52% ± 2.5%) | 5.9 ± 2.5 | (50% ± 1.0%)
4 | CN(C)CCCOc1ccc(-c2ccccc2S(=O)(=O)CC(C)(O)C(=O)Nc2ccc(C#N)c(C(F)(F)F)c2)cc1 (stereo not shown) [PAN62] | 5 ± 3.2 | (56% ± 5.9%) | 15 ± 17 | (56% ± 5.7%)
